From patent publication US20090181931A1, “ANTIVIRAL ACTIVITY OF CIDOFOVIR AGAINST ONCOLYTIC VIRUSES” (priority 2008, published 2009)
Where “and” joins values, the source holds several entries; their conditions need not be identical. Equal values may be shown once.

How the values were obtained:
[1] = XTT cell viability assay, CDV alone, A549 cells; assay type: cell-based; conditions: human; A549 cells, XTT; read-out: CC50, CDV concentration that reduce the relative cell viability to 50%
Experimental: (§1) Cells frozen in liquid nitrogen were thawed in water bath at 37° C., seeded at T25 flask, and cultured at 70-90% sub-confluent monolayer. Cells were detached with trypsin, and prepared suspension at a concentration of 1.0×10^4 cells/ml.
(§2) Cells were seeded in 96 well-plate (100 μL/well, 1000 cells/well), then cultured with 5% CO2 at 37° C.
(§3) Viruses were diluted at MOI of 1 (OBP-301, OBP-202) in H1299 and 5 in A549 (PFU/cell). Medium in each well was removed, 150 μL of diluted virus solution was added to each well of the plate. 2 hours later, medium was aspirated and replaced with fresh medium containing 2% FCS and serially diluted CDV. Cells were incubated with 5% CO2 at 37° C. for 7 days after infection.
(§4) 100 μL of PBS, 50 μL of XTT labeling reagent, and 1 μL of ion coupling reagent per well of plate were mixed.
(§5) Medium in each well of plate was removed, and 150 μL of mixture prepared above was added to each well. Plate was incubated with 5% CO2 at 37° C. for 4 hours, and then calculated absorbance at 450 nm and 690 nm. Protection was determined by the formula below: […]

[2] = system: A549 cells; assay: XTT cell viability assay, CDV alone, A549 cells; assay type: cell-based; conditions: for Relative cell viability Ave. / Relative cell viability: A549, no virus, 7 days; for Relative cell viability: single wells, dihydrate
Experimental: as §1, §2, §3, §4, §5

[3] = system: Telomelysin (OBP-301); assay: Real-time quantitative PCR, viral E1A copy number, Telomelysin in H1299 cells; assay type: cell-based, adenovirus; conditions: for E1A copy number, % (relative to 0 μM) / E1A copy number/ng DNA: Telomelysin MOI 10, H1299, 24 hours
Experimental: (§6) Cells were seeded in 6-well plate (2 mL/well, 2×10^5 cells/well), and incubated with 5% CO2 at 37° C.
(§7) Viruses were diluted at a MOI of 10. Medium in each well was removed, 500 μL of diluted virus solution was added to each well of the plate. Plates were incubated with 5% CO2 at 37° C. for 2 hours with gently shaking every 15 minutes. Medium was aspirated, washed with PBS twice, and replaced with fresh medium containing 2% FCS and serially diluted CDV. Cells were incubated with 5% CO2 at 37° C. for 24 hours after infection.
(§8) Cells were detached with Trypsin-EDTA, and collected by centrifuging. Total DNA was extracted using QIAamp™ DNA Mini Kit according to manufacture's instructions with some modifications: addition of 20 μL of RNaseA in each sample when adding ProK. DNA was eluted by 50˜100 μL of D. W.
(§9) Concentration of DNA was determined by measuring O.D.260. Each DNA samples was diluted by D. W. at a concentration of 5 ng/μL.
(§10) Master-mix for E1A primer was prepared using LightCycler™ Faststart DNAMaster SYBR Green™ according to Table 1. Standard DNA was prepared by serially 10 times dilution of pCRII-E1A plasmid (1×10^9, 1×10^8, 1×10^7, 1×10^6, 1×10^5, 1×10^4, and 1×10^3 copies/μL). 2 μL of Sample or Standard DNA was and 18 μL of Master mix were added into capillaries (total volume was 20 μL per capillary).
(§11) Q-PCR was performed according to the program of Table 2 (LightCycler quicksystem 350S). Results obtained here were analyzed using LightCycler softwere.

[4] = system: ONYX-015; assay: XTT assay, protection from cytopathic effect of ONYX-015 in H1299 cells; assay type: cell-based, adenovirus; conditions: for Protection (%) Ave. / Protection (%): ONYX-015 MOI 10, H1299, 7 days; for Protection (%): single wells, dihydrate
Experimental: as §1, §2
as §3, with “0.1 (OBP-401) or 10 (ONYX-015)” for “1 (OBP-301, OBP-202)”, “H1299.” for “H1299 and 5 in A549 (PFU/cell).”, “50” for “150”
as §4
Medium in each well of plate was removed, and 150 μL of mixture prepared above was added to each well. Plate was incubated with 5% CO2 at 37° C. for 4 hours, and then calculated absorbance at 450 nm and 690 nm. Protection was determined by the formula below:
Protection(%)={OD(AdV(+):CDV(+))−OD(AdV(+):CDV(−))}/{OD(AdV(−):CDV(+))−OD(AdV(+):CDV(−))}×100.

[5] = system: TelomeScan (OBP-401); assay: Real-time quantitative PCR, viral E1A copy number, TelomeScan in H1299 cells; assay type: cell-based, adenovirus; conditions: for E1A copy number, % (relative to 0 uM) / E1A copy number/ng DNA: TelomeScan MOI 10, H1299, 24 hours
Experimental: as §6, §7, §8, §9, §10, §11

[6] = system: ONYX-015; assay: Real-time quantitative PCR, viral E1A copy number, ONYX-015 in H1299 cells; assay type: cell-based, adenovirus; conditions: for E1A copy number, % (relative to 0 uM) / E1A copy number/ng DNA: ONYX-015 MOI 10, H1299, 24 hours
Experimental: as §6, §7, §8, §9, §10, §11

For `Nc1ccn(C[C@@H](CO)OCP(=O)(O)O)c(=O)n1.O.O` [CDV, 1-[(S)-3-hydroxy-2-(phosphonomethoxy)propyl]cytosine dihydrate], the CC50 at 7 days [1] was 107 µM, the “toxicity of CDV itself” value ([2]; A549 cells, high concentrations) was “toxic” and the “Relative cell viability Ave.” value ([2]; CDV 10 μM) was 0.969. For the same compound, the Relative cell viability ([2]; CDV 10 μM) was 0.993 and 0.938 and 0.962 and 0.982, the “Relative cell viability Ave.” value ([2]; CDV 20 μM) was 0.935 and the Relative cell viability ([2]; CDV 20 μM) was 0.982 and 0.877 and 0.924 and 0.958. For the same compound, the “Relative cell viability Ave.” value ([2]; CDV 30 μM) was 0.912, the Relative cell viability ([2]; CDV 30 μM) was 0.944 and 0.883 and 0.881 and 0.939 and the “Relative cell viability Ave.” value ([2]; CDV 40 μM) was 0.908. For the same compound, the Relative cell viability ([2]; CDV 40 μM) was 0.951 and 0.860 and 0.910 and 0.911, the “Relative cell viability Ave.” value ([2]; CDV 50 μM) was 0.852 and the Relative cell viability ([2]; CDV 50 μM) was 0.819 and 0.842 and 0.862 and 0.884. The “Relative cell viability Ave.” value ([2]; CDV 60 μM) was 0.798, the Relative cell viability ([2]; CDV 60 μM) was 0.755 and 0.792 and 0.809 and 0.837 and the “Relative cell viability Ave.” value ([2]; CDV 70 μM) was 0.720. The Relative cell viability ([2]; CDV 70 μM) was 0.709 and 0.703 and 0.747 and 0.719, the “Relative cell viability Ave.” value ([2]; CDV 80 μM) was 0.696 and the Relative cell viability ([2]; CDV 80 μM) was 0.656 and 0.707 and 0.737 and 0.683. For the same compound, the “Relative cell viability Ave.” value ([2]; CDV 90 μM) was 0.544, the Relative cell viability ([2]; CDV 90 μM) was 0.502 and 0.552 and 0.606 and 0.518 and the “Relative cell viability Ave.” value ([2]; CDV 100 μM) was 0.471. For the same compound, the Relative cell viability ([2]; CDV 100 μM) was 0.511 and 0.451 and 0.482 and 0.438, the “E1A copy number, % (relative to 0 μM)” value ([3]; CDV 0.16 μM) was 97.60% and the “E1A copy number/ng DNA” value ([3]; CDV 0.16 μM) was 1.461E+08 copy number/ng DNA. For the same compound, the “E1A copy number, % (relative to 0 μM)” value ([3]; CDV 0.8 μM) was 98.93%, the “E1A copy number/ng DNA” value ([3]; CDV 0.8 μM) was 1.481E+08 copy number/ng DNA and the “E1A copy number, % (relative to 0 μM)” value ([3]; CDV 4 μM) was 91.32%. For the same compound, the “E1A copy number/ng DNA” value ([3]; CDV 4 μM) was 1.367E+08 copy number/ng DNA, the “E1A copy number, % (relative to 0 μM)” value ([3]; CDV 20 μM) was 47.07% and the “E1A copy number/ng DNA” value ([3]; CDV 20 μM) was 7.046E+07 copy number/ng DNA. The “E1A copy number, % (relative to 0 μM)” value ([3]; CDV 100 μM) was 9.99%, the “E1A copy number/ng DNA” value ([3]; CDV 100 μM) was 1.496E+07 copy number/ng DNA and the EC50 ([3]; NCI-H1299, H1299 cells, real-time quantitative PCR, read-out: EC50 (E1A), CDV concentration that reduces the relative E1A copy number of Telomelysin to 50%) was 19.6 µM. The “Viral E1A copy number” value ([3]; Telomelysin, H1299 cells, dose-dependent manner) was “reduced”, the “Protection (%) Ave.” value ([4]; CDV 0.01 μM) was −1.092% and the “Protection (%)” value ([4]; CDV 0.01 μM) was −1.284% and −1.233% and −0.822% and −1.027%. The “Protection (%) Ave.” value ([4]; CDV 0.06 μM) was −0.642%, the “Protection (%)” value ([4]; CDV 0.06 μM) was −0.616% and −0.205% and 0.051% and −1.798% and the “Protection (%) Ave.” value ([4]; CDV 0.32 μM) was 1.516%. The “Protection (%)” value ([4]; CDV 0.32 μM) was 3.237% and 4.675% and −0.205% and −1.644%, the “Protection (%) Ave.” value ([4]; CDV 1.6 μM) was 2.646% and the “Protection (%)” value ([4]; CDV 1.6 μM) was 4.315% and 1.849% and −1.079% and 5.497%. The “Protection (%) Ave.” value ([4]; CDV 8 μM) was 5.703%, the “Protection (%) Ave.” value ([4]; CDV 40 μM) was 55.420% and the “Protection (%)” value ([4]; CDV 40 μM) was 50.912% and 58.926% and 55.536% and 56.306%. For the same compound, the “Protection (%) Ave.” value ([4]; CDV 200 μM) was 11.264%, the “Protection (%)” value ([4]; CDV 200 μM) was 10.121% and 16.902% and 9.350% and 8.682% and the “Protection (%) Ave.” value ([4]; CDV 1000 μM) was −0.783%. For the same compound, the “Protection (%)” value ([4]; CDV 1000 μM) was −2.312% and −2.260% and −2.363% and 3.802%, the “cytopathic effect induced by ONYX-015” value ([4]; H1299 cells, FIG. 2A) was “apparently inhibited” and the “E1A copy number, % (relative to 0 uM)” value ([5]; CDV 0.16 uM) was 103.48%. For the same compound, the “E1A copy number/ng DNA” value ([5]; CDV 0.16 uM) was 2.350E+08 copy number/ng DNA, the “E1A copy number, % (relative to 0 uM)” value ([5]; CDV 0.8 uM) was 83.22% and the “E1A copy number/ng DNA” value ([5]; CDV 0.8 uM) was 1.890E+08 copy number/ng DNA. For the same compound, the “E1A copy number, % (relative to 0 uM)” value ([5]; CDV 4 uM) was 100.62%, the “E1A copy number/ng DNA” value ([5]; CDV 4 uM) was 2.285E+08 copy number/ng DNA and the “E1A copy number, % (relative to 0 uM)” value ([5]; CDV 20 uM) was 70.19%. For the same compound, the “E1A copy number/ng DNA” value ([5]; CDV 20 uM) was 1.594E+08 copy number/ng DNA, the “E1A copy number, % (relative to 0 uM)” value ([5]; CDV 100 uM) was 21.83% and the “E1A copy number/ng DNA” value ([5]; CDV 100 uM) was 4.957E+07 copy number/ng DNA. For the same compound, the “Viral E1A copy number” value ([5]; TelomeScan, H1299 cells, dose-dependent manner) was “reduced”, the “E1A copy number, % (relative to 0 uM)” value ([6]; CDV 0.16 uM) was 86.98% and the “E1A copy number/ng DNA” value ([6]; CDV 0.16 uM) was 2.291E+07 copy number/ng DNA. For the same compound, the “E1A copy number, % (relative to 0 uM)” value ([6]; CDV 0.8 uM) was 91.04%, the “E1A copy number/ng DNA” value ([6]; CDV 0.8 uM) was 2.398E+07 copy number/ng DNA and the “E1A copy number, % (relative to 0 uM)” value ([6]; CDV 4 uM) was 83.71%. The “E1A copy number/ng DNA” value ([6]; CDV 4 uM) was 2.205E+07 copy number/ng DNA, the “E1A copy number, % (relative to 0 uM)” value ([6]; CDV 20 uM) was 45.10% and the “E1A copy number/ng DNA” value ([6]; CDV 20 uM) was 1.188E+07 copy number/ng DNA. The “E1A copy number, % (relative to 0 uM)” value ([6]; CDV 100 uM) was 11.20%, the “E1A copy number/ng DNA” value ([6]; CDV 100 uM) was 2.950E+06 copy number/ng DNA and the “Viral E1A copy number” value ([6]; ONYX-015, H1299 cells, dose-dependent manner) was “reduced”.
